Data on 2 molecules can be found in patent US12521356B2, “Compositions and methods for treating pain, inflammation, infection, malaria, and sepsis” (Duke University, priority 2018, dated 2026).

For one test, the system named is GPR37. Briefly: Ca2+ imaging (Fluo-4AM) in peritoneal macrophages (pMΦ) from WT and Gpr37−/− mice. It is filed as cell-based, mouse. The following applies: 30 nM; Gpr37-deficient pMΦ. On the procedure: (§1) Peritoneal macrophage culture. Peritoneal macrophages were collected by peritoneal lavage with 10 ml warm PBS containing of 1 mM EDTA. Cells were incubated in DMEM supplemented with 10% FBS at 37° C. for 2 h in petri dish and washed with PBS to eliminate non-adherent cells. The adherent cells were used as peritoneal macrophages. Peritoneal macrophages were used after 3 days of culture.
Calcium imaging. HEK 293 cells, with or without transfection of Gpr37, GPR32, ChemR23 or ALX1 cDNA, were loaded with 5 μM Fura-2AM (Invitrogen) for 1 hour and then were resuspended in normal external buffer (140 NaCl, 5 KCl, 2 CaCl2, 2 MgCl2, 10 HEPES, in mM, titrated to pH 7.4 with NaOH) or external Ca^2+-free buffer (140 NaCl, 2 MgCl2, 5 EGTA, 10 HEPES, in mM, titrated to pH 7.4 with NaOH). Peritoneal macrophages, collected from WT and Gpr37 KO mice, were loaded with 5 μM […] (Invitrogen) for 1 hour and then were resuspended in normal external buffer. Images of the HEK 293 cells and macrophages with the excitation wavelength of 340 nm and 380 nm were captured with a cooled Digital CMOS camera (ORCA-Flash 4.0, Hamamatsu Photonics K.K, Japan). The ratio of fluorescence intensity of the two wavelengths in each experiment was analyzed using MetaFluor (Molecular Devices). The Shutter speed and wavelength was controlled by Lambda DG-4 system (Sutter instrument Co., Novato, CA). Values from each of the experiments were normalized to the baseline ratio of 340/380 nm.
Next, we conducted GPR37-mediated Ca^2+ imaging in native pMΦ from WT and Gpr37^−/− mice using Fluo-4AM as a Ca^2+ indicator, since this dye works better than Fura-2AM for pMΦ. […] As compared to iCa^2+ increase in GPR37-expressing HEK293 cells, NPD1 trigger a slow-onset but more persistent Ca^2+ response in pMΦ (FIG. 2B and FIG. 2G). A relatively rapid calcium response in HEK293 cells may result from over-expression of GPR37. A sustained iCa^2+ increase in pMΦ may result from the expression of transient receptor potential (TRP) ion channels in these immune cells. It is noteworthy that macrophages express TRPV2 or TRPM2, which are involved in phagocytosis during bacterial infection. […] NPD1-triggered iCa^2+ increase in pMΦ is also Gi-dependent, since PTX blocked this increase (FIG. 2H). For comparison, ATP-evoked iCa^2+ increase was not altered in GPR37-deficient pMΦ (FIG. 2H).

The next test deals with pMΦ. Briefly: ELISA of cytokines in zymosan-stimulated pMΦ cultures. It is filed as cell-based, mouse. On the procedure: FIG. 14A-FIG. 14C. NPD1 regulates cytokine expression in cultured macrophages via GPR37. ELISA showing the expression of pro-inflammatory cytokine IL-1β (FIG. 14A) and anti-inflammatory cytokines IL-10 (FIG. 14B) and TGF-β (FIG. 14C) in pMΦ from WT and Gpr37^−/− mice. pMΦ were stimulated with 100 μg/mL zymosan for 24 h. Note that NPD1 differentially regulates the expression of pro- and anti-inflammatory cytokines. *P<0.05; n=3 cultures/group. All the data are mean±SEM.
ELISA. Mouse ELISA kits for IL-1β, TGF-β and IL10 were purchased from R&D system (Minneapolis, MN, Catalog: MLB00C for IL-1β, Catalog: MB100B for TGF-β, and Catalog: M1000B for IL-10). ELISA was performed using culture medium and hindpaw skin tissues. Cultured cells and tissues were homogenized in a lysis buffer containing protease and phosphatase inhibitors. For each Elisa assay, 50 μg proteins or 50 μL of culture medium were used. ELISA was conducted according to manufacturer's instructions. The standard curve was included in each experiment.
as §1
(In general: In an ELISA, binding on a coated surface is turned into a signal by an enzyme label.)

The target of another test is T1, CHEM23 (Homo sapiens, UniProt Q99788).
T1 sequence (Q99788 1-373): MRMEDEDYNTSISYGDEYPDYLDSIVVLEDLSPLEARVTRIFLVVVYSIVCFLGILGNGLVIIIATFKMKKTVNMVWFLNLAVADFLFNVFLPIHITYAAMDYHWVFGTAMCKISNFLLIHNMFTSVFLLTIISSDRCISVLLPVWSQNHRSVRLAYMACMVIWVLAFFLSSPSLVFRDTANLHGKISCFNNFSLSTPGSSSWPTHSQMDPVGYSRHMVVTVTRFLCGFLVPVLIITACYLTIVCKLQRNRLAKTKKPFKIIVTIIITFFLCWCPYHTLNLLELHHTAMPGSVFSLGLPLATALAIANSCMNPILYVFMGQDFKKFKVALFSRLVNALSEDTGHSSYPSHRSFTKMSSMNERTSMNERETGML
Briefly: Dot blot binding assay, positive control CHEM23. On the procedure: Lipids overlay assay. Lipids membrane coating and protein overlay assay was conducted as previously described (Ji R R, et al. Science 2016, 354, 572-577). Ethanol and chloroform soluble fatty acids were directly loaded on hydrophobic PVDF membrane (Bio-Rad). The fatty acids (NPD1, RvD1, RvE1, and DHA) coated membranes were dried and blocked with 1% BSA. The cell lysate and purified GPR37-V5 protein were incubated with the coating membrane for 2 h, and the binding was detected by anti-V5 tagged antibody (mouse, 1:1000, Thermo scientific, Catalog: 46-0705).
HEK cell culture and transfection. HEK293 flip-in cell line was purchased from Duke Cell Culture Facility. Cells were cultured in high glucose (4.5 g/L) Dulbecco's Modified Eagle's Medium containing 10% (v/v) fetal bovine serum (Gibco). Transfection (2 μg cDNA) was performed with Lonza electroporation (Lonza) at 70% confluency and the transfected cells were cultured in the same growth medium for 48 h before use. The hGPR37-V5 pLenti304 plasmids were obtained from DNASU (Tempe, AZ), and hGPR32, hChemR23 and hALX pcDNA3 plasmids were provided by Dr. Serhan from Harvard Medical School, Boston.
To determine whether NPD1 and TX14 bind to GPR37, we conducted dot blot assay by coating the blots with different concentrations of NPD1 and TX14 and included RvE1 as a control. […]

Setting [1] is: pMΦ cultures, zymosan 100 μg/mL for 24 h.

With `CC/C=C\C[C@H](O)\C=C/C=C/C=C/[C@H](O)C/C=C\C/C=C\CCC(=O)O` [NPD1, neuroprotectin D1], the “iCa2+ increase” value in the test on GPR37 is “abolished”. Further, in the test with pMΦ (setting [1]), the IL-1β levels entry is recorded as “suppressed”, the IL-10 levels result is listed as “increased” and the TGF-β levels result is “increased”. For the same molecule, in the test with pMΦ (pMΦ from WT and Gpr37−/− mice), the “dependence of cytokine effects on GPR37” value is “required GPR37”.

Turning to `CC[C@@H](O)/C=C/C=C\C[C@@H](O)/C=C/C=C/C=C\[C@@H](O)CCCC(=O)O` [RvE1], the “binding to CHEM23” value on CHEM23 is given as “strong binding”.
